The source of these data is paper PMC7761830, “Structure-Based Virtual Screening of Ultra-Large Library Yields Potent Antagonists for a Lipid GPCR” (Biomolecules, 2020).

Numbering of substitutions follows the chain as printed. “And” between values parts separate entries of the source, which are not always exact repeats. Equal entries are not always repeated. Bounds are passed on as bounds.

Common to all, as to type: cell-based
Test [1] has as its target T1, wild-type CysLT1R (Homo sapiens, UniProt Q9Y271).
T1 construct: expressed in transfected cells; host or cells: HEK293 (ATCC CRL-1573), transient transfection with Lipofectamine 3000
T1 sequence (Q9Y271 1-337): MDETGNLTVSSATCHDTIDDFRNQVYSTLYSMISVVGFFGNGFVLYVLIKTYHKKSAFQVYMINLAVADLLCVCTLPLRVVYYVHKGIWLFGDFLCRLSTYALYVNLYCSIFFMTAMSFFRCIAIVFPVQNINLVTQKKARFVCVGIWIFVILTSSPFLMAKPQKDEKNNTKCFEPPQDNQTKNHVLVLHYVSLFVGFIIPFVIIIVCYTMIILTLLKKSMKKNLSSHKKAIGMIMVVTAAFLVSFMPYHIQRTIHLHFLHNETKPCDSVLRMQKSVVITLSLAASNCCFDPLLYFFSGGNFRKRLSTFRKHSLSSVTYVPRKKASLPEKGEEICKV
Nature of the test: IP1 production assay, antagonist mode, LTC4 (EC80) as agonist. The following applies: HEK293, wild-type CysLT1R, LTC4 at EC80; for Ki: functional Ki by Cheng-Prusoff, read-out: CysLT1R (LTC4) Ki ± SEM. The protocol:
(§1) All 139 selected compounds were screened in a functional assay measuring IP1 production as an indicator of Gαq activation. For this assay, we used the Cisbio IP-One kit as previously described. Human Embryonic Kidney (HEK) 293 cells (ATCC CRL-1573) between passages 5 and 25 were seeded onto poly-L-Lysine-coated 384-well plates at 20,000 cells/well and transfected with 30 ng of cDNA coding for the wild-type CysLT1R or CysLT2R receptors or for the CysLT2R mutant L129Q, using the Lipofectamine 3000 (Thermo Fisher Scientific) transfection agent. At 48 h post-transfection, the media was removed and the cells were washed with fresh Hank’s Balanced Salt Solution (HBSS). […] First, all 139 selected compounds were screened at a 30 µM concentration in both the agonist and antagonist mode in cells transiently expressing the wildtype CysLT1R or CysLT2R receptors. […] For CysLT1R, the compounds retained were BRI-12328, BRI-12334, BRI-12359, BRI-12410, BRI-12411, BRI-12417, BRI-12424, BRI-12435, BRI-12450, and BRI-12458; for CysLT2R, these were BRI-12328, BRI-12334, BRI-12359, BRI-12401, BRI-12402, BRI-12405, BRI-12410, BRI-413, BRI-12417, BRI-12424, BRI-426, BRI-427, BRI-450, BRI-453, BRI-454, BRI-458, and BRI-466. These hits were again tested in the antagonist mode with compound concentrations ranging from 1.56 µM to 100 µM, at 2-fold concentration intervals. The three best hits (BRI-12359, BRI-417, and BRI-424) were also tested using the LTC4 ligand (EC80 concentration) and in cells transiently expressing the constitutively active CysLT2R mutant L129Q. […] After compound stimulation, the cells were incubated for 1 h at 37 °C and stimulated with IP1-D2 and Ab-Crypt reagents in Lysis Buffer. The cells were then incubated at room temperature for an additional hour. The plate was read on a Tecan Genios Pro plate reader using a HTRF (homogeneous time-resolved fluorescence) filter set (λex = 320 nm, λem = 620 and 655 nm). Normalized data were plotted using either the three-parameter or four-parameter EC50/IC50 fits of GraphPad Prism 8 (San Diego). […] Data represent the means ± SEM of at least three independent experiments performed in quadruplicate. For the additional antagonist experiments performed with BRI-12359, we performed Schild analysis in order to determine pA2 values.

Test [2] concerns the target T2, wild-type CysLT2R (Homo sapiens, UniProt Q9NS75).
T2 construct: expressed in transfected cells; host or cells: HEK293 (ATCC CRL-1573), transient transfection with Lipofectamine 3000
T2 sequence (Q9NS75 1-346): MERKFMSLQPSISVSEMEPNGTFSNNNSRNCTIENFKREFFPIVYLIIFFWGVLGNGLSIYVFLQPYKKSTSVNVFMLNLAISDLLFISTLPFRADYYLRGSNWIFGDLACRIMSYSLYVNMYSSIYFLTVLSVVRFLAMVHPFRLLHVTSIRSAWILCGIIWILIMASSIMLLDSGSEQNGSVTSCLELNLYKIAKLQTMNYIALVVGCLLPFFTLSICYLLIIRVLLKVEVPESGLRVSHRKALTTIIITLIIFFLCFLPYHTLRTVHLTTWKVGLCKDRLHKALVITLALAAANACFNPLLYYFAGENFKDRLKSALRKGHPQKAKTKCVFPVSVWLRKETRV
The test is described as above. The note with it: HEK293, wild-type CysLT2R; LTC4 at EC80. The protocol: as §1

Test [3] concerns the target T3, CysLT2R mutant L129Q (Homo sapiens, UniProt Q9NS75, L129Q).
T3 construct: expressed in transfected cells; host or cells: HEK293 (ATCC CRL-1573), transient transfection with Lipofectamine 3000
T3 sequence (Q9NS75 1-346 L129Q): T2 sequence (Q9NS75 1-346) with L129Q
Nature of the test: IP1 production assay, constitutively active mutant, direct compound stimulation (inverse agonism). The note with it: for % max inhibition ± SEM of constitutive IP1 accumulation / IC50: HEK293 transiently expressing CysLT2R L129Q; for % max inhibition ± SEM of constitutive IP1 accumulation: WT non-stimulated = 0%, L129Q non-stimulated = 100%; for IC50: compound 1.6 to 100 μM, no agonist, read-out: IC50 ± SEM, inhibition of constitutive IP1 accumulation. On the procedure:
as §1
This effect would be particularly interesting in the case of the L129Q CysLT2R mutant identified in uveal melanoma patients. We tested these three compounds in the functional IP1 assay using cells transiently expressing the L129Q CysLT2R mutant, directly stimulated with a range of compound concentrations (1.6 to 100 μM).

Test [4] addresses T1, wild-type CysLT1R. Nature of the test: IP1 production assay, antagonist mode, co-stimulation with EC80 LTD4. The following applies: for inhibition at 30 µM: HEK293, compound 30 µM, LTD4 at EC80, HEK293, wild-type CysLT1R, read-out: inhibition of LTD4-induced IP1 production, single-concentration screen; for Emax: HEK293, read-out: CysLT1R (LTD4) % Max Inhibition ± SEM; for extent of inhibition of LTD4-mediated response at CysLT1R (in words): antagonist mode, 1.5 to 100 µM.

Test [5] addresses T2, wild-type CysLT2R. The description is as above. The note with it: for inhibition at 30 µM: HEK293, compound 30 µM, LTD4 at EC80, HEK293, wild-type CysLT2R, read-out: inhibition of LTD4-induced IP1 production, single-concentration screen; for Emax: HEK293, read-out: CysLT2R (LTD4) % Max Inhibition ± SEM.
Test [6] addresses T4, CysLT1R-WT (Homo sapiens, UniProt Q9Y271).
T4 construct: expressed in transfected cells; host or cells: HEK293 (ATCC CRL-1573), transient transfection with Lipofectamine 3000
T4 sequence (Q9Y271 1-337): T1 sequence (Q9Y271 1-337)
Nature of the test: IP1 production assay, Schild analysis: fixed BRI-12359 then range of LTD4. The protocol: (§2) For this assay, we used the Cisbio IP-One kit as previously described. […] At 48 h post-transfection, the media was removed and the cells were washed with fresh Hank’s Balanced Salt Solution (HBSS). […] After compound stimulation, the cells were incubated for 1 h at 37 °C and stimulated with IP1-D2 and Ab-Crypt reagents in Lysis Buffer. The cells were then incubated at room temperature for an additional hour. […] Normalized data were plotted using either the three-parameter or four-parameter EC50/IC50 fits of GraphPad Prism 8 (San Diego). […] Data represent the means ± SEM of at least three independent experiments performed in quadruplicate.

In test [7] the target is T5, CysLT2R-WT (Homo sapiens, UniProt Q9NS75).
T5 construct: expressed in transfected cells; host or cells: HEK293 (ATCC CRL-1573), transient transfection with Lipofectamine 3000
T5 sequence (Q9NS75 1-346): T2 sequence (Q9NS75 1-346)
The test is described as above. On the procedure: as §2

One may read the Ki as a measure of affinity in units of concentration, obtained from inhibition or displacement. Consider `Cn1c(-c2ccc(NC(=O)c3cccc(OCC(=O)O)c3)cc2)nc2ccccc21` [BRI-12424], for which, in test [1], the “CysLT1R (LTC4) % Max Inhibition ± SEM” value stood at 52 ± 9% and the Ki amounted to 180 ± 30 nM. Besides, the “CysLT2R (LTC4) % Max Inhibition ± SEM” value in test [2] was determined as 9 ± 5%. Also, the “% max inhibition ± SEM of constitutive IP1 accumulation” value in test [3] is on record as 21 ± 10%. In addition, in test [4], the Ki was found to be 220 ± 30 nM, the remaining activity at 30 µM worked out at 50.8%, the inhibition at 30 µM is at least 50% and the Emax stood at 71 ± 19%. Besides, the “extent of inhibition of LTD4-mediated response at CysLT1R (in words)” value (shortened to “extent of inhibition … at CysLT1R (in words)”) in test [4] is on record as “partial antagonism”. For the same compound, in test [5], the remaining activity at 30 µM came out at 79.7%, the inhibition at 30 µM was below 50% and the Emax was determined as 7 ± 5%.

A word on the IC50: it is the midpoint of a concentration-inhibition curve. Take `NC(=O)c1ccccc1Oc1ccc(NC(=O)c2ccc3nc(C(F)(F)F)cn3c2)cc1` [BRI-12417]: in test [1], the “CysLT1R (LTC4) % Max Inhibition ± SEM” value is given as 83 ± 14%; the Ki is 700 nM and 680 nM. In addition, the “CysLT2R (LTC4) % Max Inhibition ± SEM” value in test [2] is on record as 32 ± 5%. Besides, in test [3], the “% max inhibition ± SEM of constitutive IP1 accumulation” value was 59 ± 12%; the half-maximal inhibitory concentration (IC50) was 30000 to 40000 nM and 38000 nM. Moreover, in test [4], the affinity, expressed as Ki, was 3100 ± 630 nM; the remaining activity at 30 µM is 54.7%; the inhibition at 30 µM was at least 50%; the Emax came out at 100 ± 17%. Further, the “extent of inhibition … at CysLT1R (in words)” value in test [4] is given as “completely inhibit”. In test [5], the remaining activity at 30 µM was 74.4%, the inhibition at 30 µM is below 50% and the Emax was 54 ± 6%.

With `NC(=O)c1ccsc1NC(=O)CSc1nnc(-c2c[nH]c3ccccc23)o1` [BRI-12359], in test [1], the “CysLT1R (LTC4) % Max Inhibition ± SEM” value was found to be 105 ± 7%; the Ki is 700 nM and 720 nM. Besides, in test [2], the “CysLT2R (LTC4) % Max Inhibition ± SEM” value is recorded as 65 ± 11%. Moreover, the “inhibition of IP1 production by CysLT2R L129Q mutant (in words)” value in test [3] (100 μM compound) is given as “practically full inhibition”. Also, in test [3], the “% max inhibition ± SEM of constitutive IP1 accumulation” value was 82 ± 11%; the half-inhibitory concentration (IC50) is 30000 to 40000 nM and 32000 nM. In addition, in test [4], affinity was put at a Ki of 1030 ± 280 nM, the remaining activity at 30 µM was 5.59%, the Emax was 121 ± 13% and the “extent of inhibition … at CysLT1R (in words)” value is “completely inhibit”. Also, in test [5], the Ki stood at 6460 ± 430 nM, the remaining activity at 30 µM was 36.2%, the inhibition at 30 µM was at least 50% and the Emax turned out to be 92 ± 15%. Further, the “extent of inhibition of LTD4-induced response at CysLT2R (in words)” value in test [5] (antagonist mode, 1.5 to 100 µM) is recorded as “fully abolished”. The compound further showed a Kb in test [6] of 340 ± 90 nM. Also, in test [6] (Schild analysis, CysLT1R-WT, LTD4), the “pA2 ± SEM” value is given as 6.5 ± 0.1 −log. The compound also displayed a Kb in test [7] of 105000 ± 37000 nM. The “pA2 ± SEM” value in test [7] (Schild analysis, CysLT2R-WT, LTD4) is given as 4.0 ± 0.2 −log.
